Test results from paper PMC12778052 (Science Advances, 2026).

Tested on: HT1376 tumors
Assay: EV effect on Nectin-4 temporal PD, [^68Ga]AJ647 PET
Type: in vivo, NSG mice
Procedure: Mice with tumor volumes of ~100 to 150 mm^3 were injected with ~200 μCi [7.4 megabecquerels (MBq)] of [^68Ga]AJ647 in […] of 5% ethanol in saline intravenously and anesthetized under 2.5% isoflurane. PET-computed tomography (CT) images were acquired at 60 min after radiotracer injection at 5 min per bed in an ARGUS small-animal PET/CT scanner (Sedecal, Madrid, Spain) as described previously (n = 3, unless otherwise noted). PET-MR images were acquired on a simultaneous 7T Bruker PET-MR scanner. Dynamic imaging was conducted to evaluate the PK of [^68Ga]AJ647. [^68Ga]AJ647 was injected (with the help of a catheter) after mice were anesthetized under 2.5% isoflurane on the equipment bed. All PET data were reconstructed using the two-dimensional (2D) ordered subset expectation maximization algorithm and corrected for radioactive decay and dead times. The SUV values were calculated by finding %IA on the basis of a calibration factor obtained from a known radioactive quantity and then normalizing by mice weight. Amide software was used to derive SUV values by drawing the region of interest to closely fit tumors. In particular, MR images were used to identify tumor boundaries manually; these boundaries were transferred to co-registered PET images to derive SUVs. This process was repeated for each mouse individually in a blinded fashion. For the change in accessible Nectin-4 following EV treatment, ΔSUV was calculated by subtracting baseline (pre-treatment) uptake from posttherapy uptake of [^68Ga]AJ647. TE was quantified by normalizing this change by initial SUV in the same subject controls. Image fusion, visualization, and 3D rendering were accomplished using Amira 2020.3.1 (FEI, Hillsboro, OR). The dose-time PD of Nectin-4 following EV treatment was studied at doses of 6, 9, and 15 mg/kg. Experiments involving PET imaging were performed first. Male NSG mice were inoculated with 4 million HT1376 cells at day 0. On day 23 (average tumor volume, 150 ± 30 mm^3), mice were randomized to receive either saline or a single dose of EV (6, 9, or 15 mg/kg) intravenously (n = 3 for each dose and n = 2 for saline). Mice (n = 2) from each dose group and saline group were imaged on days 1, 3, and 6 following EV treatment. Once PET imaging results were analyzed, ex vivo distribution experiment was performed with n = 16 to 18 for each dose and n = 10 for saline. Treated mice (n = 8 or 9 per dose per time point) along with saline controls (n = 5 per time point) were euthanized on days 1 and 6. Biodistribution studies were performed at 60 min after [^68Ga]AJ647 injection, as described above. PD metrics were defined as follows Accessible Nectin−4=SUVpost/SUVpre∗100 Nectin−4 TE=(SUVpre−SUVpost)/SUVpre∗100

With enfortumab vedotin [EV] the “Nectin-4 engagement by PET” value (day 1, EV 6, 9 or 15 mg/kg single dose) was “full occupancy of Nectin-4”, the “Nectin-4 engagement by PET” value (day 3, EV 6 mg/kg) was “increase in [^68Ga]AJ647 uptake” and the “Nectin-4 engagement by PET” value (day 3, EV 9 and 15 mg/kg) was “low tracer uptake”. The “Nectin-4 engagement by PET” value (day 6, EV 6 mg/kg) was “significant increase in [^68Ga]AJ647 uptake”, the “Nectin-4 engagement by PET” value (day 6, EV 9 mg/kg) was “moderate increase in uptake” and the “Nectin-4 engagement by PET” value (day 6, EV 15 mg/kg) was “minimal tracer uptake”.
